Results taken from ChEMBL document CHEMBL1201861, “Genomics of Drug Sensitity in Cancer screening data, Wellcome Trust Sanger Institute”.

Columns and labels:
Experiment in all cases: cells
D-502MG = format: functional, cell-based; conditions: Homo sapiens
Description: SANGER: Inhibition of human D-502MG cell growth in a cell viability assay.

DJM-1 = format: functional, cell-based; conditions: Homo sapiens;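 further: growth inhibition of human DJM-1 cells, read out by a cell viability assay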
Description: SANGER: Inhibition of human DJM-1 cell growth in a cell viability assay.

EKVX = format: functional, cell-based; conditions: Homo sapiens;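 further: growth inhibition of human EKVX cells, read out with a cell viability assay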
Description: SANGER: Inhibition of human EKVX cell growth in a cell viability assay.

ES4 = format: functional, cell-based; conditions: Homo sapiens;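 further: growth inhibition of human ES4 cells, read out by a cell viability assay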
Description: SANGER: Inhibition of human ES4 cell growth in a cell viability assay.

ES5 = format: functional, cell-based; conditions: Homo sapiens;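 further: growth inhibition of human ES5 cells, read out by a cell viability assay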
Description: SANGER: Inhibition of human ES5 cell growth in a cell viability assay.

ES6 = format: functional, cell-based; conditions: Homo sapiens;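 further: growth inhibition of human ES6 cells, read out with a cell viability assay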
Description: SANGER: Inhibition of human ES6 cell growth in a cell viability assay.

EW-13 = format: functional, cell-based; conditions: Homo sapiens;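 further: growth inhibition of EW-13 cells, read out with a cell viability assay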
Description: SANGER: Inhibition of human EW-13 cell growth in a cell viability assay.

GI-1 = format: functional, cell-based; conditions: Homo sapiens;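 further: growth inhibition of human GI-1 cells, measured with a cell viability readout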
Description: SANGER: Inhibition of human GI-1 cell growth in a cell viability assay.

HAL-01 = format: functional, cell-based; conditions: Homo sapiens;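 further: growth inhibition of human HAL-01 cells, read out with a cell viability assay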
Description: SANGER: Inhibition of human HAL-01 cell growth in a cell viability assay.

HCC1187 = format: functional, cell-based; conditions: Homo sapiens;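 further: growth inhibition of HCC1187 cells, read out with a cell viability assay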
Description: SANGER: Inhibition of human HCC1187 cell growth in a cell viability assay.

HCC2218 = format: functional, cell-based; conditions: Homo sapiens;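 further: cell viability assay read-out, with IC50 given as the concentration that inhibits growth of the cell line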
Description: SANGER: Inhibition of human HCC2218 cell growth in a cell viability assay.

HDLM-2 = format: functional, cell-based; conditions: Homo sapiens;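 further: cell viability assay measuring suppression of HDLM-2 proliferation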
Description: SANGER: Inhibition of human HDLM-2 cell growth in a cell viability assay.

HOP-62 = format: functional, cell-based; conditions: Homo sapiens;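 further: cell growth inhibition determined with a viability assay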
Description: SANGER: Inhibition of human HOP-62 cell growth in a cell viability assay.

HOS = format: functional, cell-based; conditions: Homo sapiens;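 further: growth inhibition of human HOS cells, read out with a cell viability assay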
Description: SANGER: Inhibition of human HOS cell growth in a cell viability assay.

JVM-2 = format: functional, cell-based; conditions: Homo sapiens;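 further: growth inhibition of JVM-2 cells determined by a cell viability assay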
Description: SANGER: Inhibition of human JVM-2 cell growth in a cell viability assay.

JVM-3 = format: functional, cell-based; conditions: Homo sapiens;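 further: growth inhibition of human JVM-3 cells, read out with a cell viability assay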
Description: SANGER: Inhibition of human JVM-3 cell growth in a cell viability assay.

KARPAS-299 = format: functional, cell-based; conditions: Homo sapiens
Description: SANGER: Inhibition of human KARPAS-299 cell growth in a cell viability assay.

KARPAS-45 = format: functional, cell-based; conditions: Homo sapiens;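 further: inhibition of cell line growth, read out through a viability assay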
Description: SANGER: Inhibition of human KARPAS-45 cell growth in a cell viability assay.

KG-1 = format: functional, cell-based; conditions: Homo sapiens;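 further: growth inhibition of KG-1 cells, read out by a cell viability assay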
Description: SANGER: Inhibition of human KG-1 cell growth in a cell viability assay.

KM-H2 = format: functional, cell-based; conditions: Homo sapiens;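 further: growth inhibition of KM-H2 cells, read out by a cell viability assay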
Description: SANGER: Inhibition of human KM-H2 cell growth in a cell viability assay.

KNS-81-FD = format: functional, cell-based; conditions: Homo sapiens;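 further: growth inhibition of KNS-81-FD cells, read out with a cell viability assay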
Description: SANGER: Inhibition of human KNS-81-FD cell growth in a cell viability assay.

LB1047-RCC = format: functional, cell-based; conditions: Homo sapiens;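 further: inhibition of cell growth, determined with a cell viability assay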
Description: SANGER: Inhibition of human LB1047-RCC cell growth in a cell viability assay.

LB2518-MEL = format: functional, cell-based; conditions: Homo sapiens;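 further: growth inhibition of human LB2518-MEL cells, measured with a cell viability assay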
Description: SANGER: Inhibition of human LB2518-MEL cell growth in a cell viability assay.

LC-1F = format: functional, cell-based; conditions: Homo sapiens;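 further: growth inhibition of human LC-1F cells, read out with a cell viability assay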
Description: SANGER: Inhibition of human LC-1F cell growth in a cell viability assay.

MC-CAR = format: functional, cell-based; conditions: Homo sapiens;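 further: growth inhibition of the human MC-CAR cell line, read out by a cell viability assay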
Description: SANGER: Inhibition of human MC-CAR cell growth in a cell viability assay.

MDA-MB-134-VI = format: functional, cell-based; conditions: Homo sapiens
Description: SANGER: Inhibition of human MDA-MB-134-VI cell growth in a cell viability assay.

MHH-PREB-1 = format: functional, cell-based; conditions: Homo sapiens;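 further: cell viability assay measuring inhibition of proliferation of human MHH-PREB-1 cells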
Description: SANGER: Inhibition of human MHH-PREB-1 cell growth in a cell viability assay.

MMAC-SF = format: functional, cell-based; conditions: Homo sapiens;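 further: growth inhibition of human MMAC-SF cells, read out with a cell viability assay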
Description: SANGER: Inhibition of human MMAC-SF cell growth in a cell viability assay.

MOLT-16 = format: functional, cell-based; conditions: Homo sapiens;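 further: growth inhibition of human MOLT-16 cells, read out with a cell viability assay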
Description: SANGER: Inhibition of human MOLT-16 cell growth in a cell viability assay.

MeWo = format: functional, cell-based; conditions: Homo sapiens;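 further: growth inhibition of MeWo cells, determined by a cell viability readout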
Description: SANGER: Inhibition of human Mewo cell growth in a cell viability assay.

NB13 = format: functional, cell-based; conditions: Homo sapiens;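 further: cell viability readout measuring growth inhibition of human NB13 cells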
Description: SANGER: Inhibition of human NB13 cell growth in a cell viability assay.

NB69 = format: functional, cell-based; conditions: Homo sapiens;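 further: growth inhibition of NB69 cells, determined by a cell viability assay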
Description: SANGER: Inhibition of human NB69 cell growth in a cell viability assay.

NCI-H1304 = format: functional, cell-based; conditions: Homo sapiens;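 further: growth inhibition of the cancer cell line, measured in a cell viability assay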
Description: SANGER: Inhibition of human NCI-H1304 cell growth in a cell viability assay.

NCI-H1395 = format: functional, cell-based; conditions: Homo sapiens;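 further: cell viability assay read-out quantifying reduced proliferation of human NCI-H1395 cells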
Description: SANGER: Inhibition of human NCI-H1395 cell growth in a cell viability assay.

NCI-H1563 = format: functional, cell-based; conditions: Homo sapiens;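 further: growth inhibition of human NCI-H1563 cells, read out with a cell viability assay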
Description: SANGER: Inhibition of human NCI-H1563 cell growth in a cell viability assay.

NCI-H1581 = format: functional, cell-based; conditions: Homo sapiens;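 further: cell growth inhibition read out by a viability assay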
Description: SANGER: Inhibition of human NCI-H1581 cell growth in a cell viability assay.

NCI-H1650 = format: functional, cell-based; conditions: Homo sapiens;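 further: growth inhibition of human NCI-H1650 cells measured by a cell viability assay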
Description: SANGER: Inhibition of human NCI-H1650 cell growth in a cell viability assay.

NCI-H1693 = format: functional, cell-based; conditions: Homo sapiens;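 further: growth inhibition of the human cell line, read out with a cell viability assay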
Description: SANGER: Inhibition of human NCI-H1693 cell growth in a cell viability assay.

NCI-H1838 = format: functional, cell-based; conditions: Homo sapiens;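 further: growth inhibition of NCI-H1838 cells, determined with a cell viability readout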
Description: SANGER: Inhibition of human NCI-H1838 cell growth in a cell viability assay.

NCI-H2196 = format: functional, cell-based; conditions: Homo sapiens;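 further: cell viability assay used as the readout of growth inhibition in NCI-H2196 cells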
Description: SANGER: Inhibition of human NCI-H2196 cell growth in a cell viability assay.

OMC-1 = format: functional, cell-based; conditions: Homo sapiens;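 further: growth inhibition of the OMC-1 cell line, measured by a cell viability assay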
Description: SANGER: Inhibition of human OMC-1 cell growth in a cell viability assay.

RCC10RGB = format: functional, cell-based; conditions: Homo sapiens;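 further: growth inhibition of human RCC10RGB cells, read out by a cell viability assay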
Description: SANGER: Inhibition of human RCC10RGB cell growth in a cell viability assay.

RPMI-8226 = format: functional, cell-based; conditions: Homo sapiens
Description: SANGER: Inhibition of human RPMI-8226 cell growth in a cell viability assay.

RPMI-8866 = format: functional, cell-based; conditions: Homo sapiens
Description: SANGER: Inhibition of human RPMI-8866 cell growth in a cell viability assay.

Ramos-2G6-4C10 = format: functional, cell-based; conditions: Homo sapiens;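 further: growth inhibition of the cell line, measured by a cell viability read-out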
Description: SANGER: Inhibition of human Ramos-2G6-4C10 cell growth in a cell viability assay.

SCC-3 = format: functional, cell-based; conditions: Homo sapiens;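 further: cell viability assay measuring inhibition of SCC-3 cell growth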
Description: SANGER: Inhibition of human SCC-3 cell growth in a cell viability assay.

SCH = format: functional, cell-based; conditions: Homo sapiens;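 further: growth inhibition of human SCH cells, read out in a cell viability assay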
Description: SANGER: Inhibition of human SCH cell growth in a cell viability assay.

SF-539 = format: functional, cell-based; conditions: Homo sapiens;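 further: Read-out is a cell viability assay, with IC50 reflecting inhibition of cell growth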
Description: SANGER: Inhibition of human SF539 cell growth in a cell viability assay.

SK-LMS-1 = format: functional, cell-based; conditions: Homo sapiens;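 further: growth inhibition of human SK-LMS-1 cells, read out with a cell viability assay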
Description: SANGER: Inhibition of human SK-LMS-1 cell growth in a cell viability assay.

SK-MEL-1 = format: functional, cell-based; conditions: Homo sapiens;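 further: growth inhibition of human SK-MEL-1 cells, read out by a cell viability assay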
Description: SANGER: Inhibition of human SK-MEL-1 cell growth in a cell viability assay.

SK-N-DZ = format: functional, cell-based; conditions: Homo sapiens;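 further: growth inhibition of the cancer cell line, read out through a viability assay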
Description: SANGER: Inhibition of human SK-N-DZ cell growth in a cell viability assay.

SK-NEP-1 = format: functional, cell-based; conditions: Homo sapiens;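 further: growth inhibition of human SK-NEP-1 cells, read out by a cell viability assay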
Description: SANGER: Inhibition of human SK-NEP-1 cell growth in a cell viability assay.

SK-UT-1 = format: functional, cell-based; conditions: Homo sapiens
Description: SANGER: Inhibition of human SK-UT-1 cell growth in a cell viability assay.

SW-620 = format: functional, cell-based; conditions: Homo sapiens
Description: SANGER: Inhibition of human SW620 cell growth in a cell viability assay.

697 = format: functional, cell-based; conditions: Homo sapiens
Description: SANGER: Inhibition of human 697 cell growth in a cell viability assay.

A4-Fuk = format: functional, cell-based; conditions: Homo sapiens
Description: SANGER: Inhibition of human A4-Fuk cell growth in a cell viability assay.

A498 = format: functional, cell-based; conditions: Homo sapiens
Description: SANGER: Inhibition of human A498 cell growth in a cell viability assay.

ATN-1 = format: functional, cell-based; conditions: Homo sapiens
Description: SANGER: Inhibition of human ATN-1 cell growth in a cell viability assay.

BB65-RCC = format: functional, cell-based; conditions: Homo sapiens
Description: SANGER: Inhibition of human BB65-RCC cell growth in a cell viability assay.

BV-173 = format: functional, cell-based; conditions: Homo sapiens
Description: SANGER: Inhibition of human BV-173 cell growth in a cell viability assay.

Becker = format: functional, cell-based; conditions: Homo sapiens
Description: SANGER: Inhibition of human Becker cell growth in a cell viability assay.

CAL-12T = format: functional, cell-based, Homo sapiens; conditions: Homo sapiens, CAL-12T
Description: SANGER: Inhibition of human CAL-12T cell growth in a cell viability assay.

TE-8 = format: functional, cell-based; conditions: Homo sapiens
Description: SANGER: Inhibition of human TE-8 cell growth in a cell viability assay.

TGBC1TKB = format: functional, cell-based; conditions: Homo sapiens
Description: SANGER: Inhibition of human TGBC1TKB cell growth in a cell viability assay.

TGBC24TKB = format: functional, cell-based; conditions: Homo sapiens
Description: SANGER: Inhibition of human TGBC24TKB cell growth in a cell viability assay.

CCNC(=O)c1noc(-c2cc(C(C)C)c(O)cc2O)c1-c1ccc(CN2CCOCC2)cc1 [LUMINESPIB]
IC50 (D-502MG): > 256 nM | IC50 (DJM-1): 42.7 nM | IC50 (EKVX): 105 nM | IC50 (ES4): 15 nM | IC50 (ES5): > 256 nM | IC50 (ES6): 12.6 nM | IC50 (EW-13): 5.18 nM | IC50 (GI-1): 148 nM | IC50 (HAL-01): > 256 nM | IC50 (HCC1187): > 256 nM | IC50 (HCC2218): 100 nM | IC50 (HDLM-2): 41.1 nM | IC50 (HOP-62): 15.4 nM | IC50 (HOS): 1.38 nM | IC50 (JVM-2): > 256 nM | IC50 (JVM-3): > 256 nM | IC50 (KARPAS-299): 230 nM | IC50 (KARPAS-45): 93.5 nM | IC50 (KG-1): > 256 nM | IC50 (KM-H2): 72.4 nM | IC50 (KNS-81-FD): 69.2 nM | IC50 (LB1047-RCC): 50.3 nM | IC50 (LB2518-MEL): > 256 nM | IC50 (LC-1F): > 256 nM | IC50 (MC-CAR): 45.7 nM | IC50 (MDA-MB-134-VI): 174 nM | IC50 (MHH-PREB-1): 93.1 nM | IC50 (MMAC-SF): 43 nM | IC50 (MOLT-16): 17.9 nM | IC50 (MeWo): > 256 nM | IC50 (NB13): 42.3 nM | IC50 (NB69): 11 nM | IC50 (NCI-H1304): 82.7 nM | IC50 (NCI-H1395): > 256 nM | IC50 (NCI-H1563): > 256 nM | IC50 (NCI-H1581): > 256 nM | IC50 (NCI-H1650): 16.5 nM | IC50 (NCI-H1693): 36.2 nM | IC50 (NCI-H1838): > 256 nM | IC50 (NCI-H2196): 217 nM | IC50 (OMC-1): 17.5 nM | IC50 (RCC10RGB): > 256 nM | IC50 (RPMI-8226): 117 nM | IC50 (RPMI-8866): > 256 nM | IC50 (Ramos-2G6-4C10): 76.5 nM | IC50 (SCC-3): > 256 nM | IC50 (SCH): > 256 nM | IC50 (SF-539): > 256 nM | IC50 (SK-LMS-1): 4.58 nM | IC50 (SK-MEL-1): > 256 nM | IC50 (SK-N-DZ): 179 nM | IC50 (SK-NEP-1): 159 nM | IC50 (SK-UT-1): 32.2 nM | IC50 (SW-620): 19.2 nM | IC50 697: 20.3 nM | IC50 (A4-Fuk): 17 nM | IC50 (A498): > 256 nM | IC50 (ATN-1): > 256 nM | IC50 (BB65-RCC): 12 nM | IC50 (BV-173): 34.3 nM | IC50 (Becker): 15.1 nM | IC50 (CAL-12T): 9.22 nM | IC50 (TE-8): 2.37 nM | IC50 (TGBC1TKB): 210 nM | IC50 (TGBC24TKB): > 256 nM

CO[C@@]12[C@H](COC(N)=O)C3=C(C(=O)C(C)=C(N)C3=O)N1C[C@@H]1N[C@@H]12 [MITOMYCIN]
IC50 (D-502MG): > 16000 nM | IC50 (DJM-1): 1030 nM | IC50 (EKVX): 893 nM | IC50 (ES4): < 62.5 nM | IC50 (ES5): 102 nM | IC50 (ES6): 746 nM | IC50 (EW-13): 52.5 nM | IC50 (GI-1): 35.2 nM | IC50 (HAL-01): 15.7 nM | IC50 (HCC1187): 8920 nM | IC50 (HCC2218): 589 nM | IC50 (HDLM-2): 1460 nM | IC50 (HOP-62): 20.2 nM | IC50 (HOS): 107 nM | IC50 (JVM-2): 397 nM | IC50 (JVM-3): 2650 nM | IC50 (KARPAS-299): 1420 nM | IC50 (KARPAS-45): 2270 nM | IC50 (KG-1): 597 nM | IC50 (KM-H2): 130 nM | IC50 (KNS-81-FD): 1590 nM | IC50 (LB1047-RCC): < 62.5 nM | IC50 (LB2518-MEL): 535 nM | IC50 (LC-1F): 862 nM | IC50 (MC-CAR): 161 nM | IC50 (MDA-MB-134-VI): 2160 nM | IC50 (MHH-PREB-1): 3150 nM | IC50 (MMAC-SF): 1010 nM | IC50 (MOLT-16): 585 nM | IC50 (MeWo): 9550 nM | IC50 (NB13): 646 nM | IC50 (NB69): 175 nM | IC50 (NCI-H1304): 375 nM | IC50 (NCI-H1395): 2230 nM | IC50 (NCI-H1563): 1430 nM | IC50 (NCI-H1581): 907 nM | IC50 (NCI-H1650): 283 nM | IC50 (NCI-H1693): 900 nM | IC50 (NCI-H1838): 404 nM | IC50 (NCI-H2196): 886 nM | IC50 (OMC-1): 390 nM | IC50 (RCC10RGB): 1350 nM | IC50 (RPMI-8226): 1240 nM | IC50 (RPMI-8866): 1320 nM | IC50 (Ramos-2G6-4C10): 2550 nM | IC50 (SCC-3): < 62.5 nM | IC50 (SCH): > 16000 nM | IC50 (SF-539): 127 nM | IC50 (SK-LMS-1): 439 nM | IC50 (SK-MEL-1): 1890 nM | IC50 (SK-N-DZ): 2390 nM | IC50 (SK-NEP-1): 167 nM | IC50 (SK-UT-1): 82.8 nM | IC50 (SW-620): 39.8 nM | IC50 697: < 62.5 nM | IC50 (A4-Fuk): 225 nM | IC50 (A498): > 16000 nM | IC50 (ATN-1): 17.4 nM | IC50 (BB65-RCC): 145 nM | IC50 (BV-173): < 62.5 nM | IC50 (Becker): 862 nM | IC50 (CAL-12T): 491 nM | IC50 (TE-8): 35.9 nM | IC50 (TGBC1TKB): 1210 nM | IC50 (TGBC24TKB): 710 nM
